Entries after “also recorded” stand apart in the source; their conditions may differ.
Assays:
[1] = test system: ISO-induced CREB phosphorylation in striatal neurons; set-up: dose or concentration left out as unconfirmed; conditions: ref unpublished observations; cited from earlier work
From the text: (§1) Supplement pone.0018114.s002.xlsx, sheet "Sheet1" | column: Target (notes)

[2] = test system: CRF-induced CREB phosphorylation in striatal neurons; experiment: Block of CRF-induced CREB phosphorylation; format: cell-based, rat; conditions: 30 min prior and concurrently, CRF 15 min
[3] = test system: forskolin (FSK)-induced CREB phosphorylation; experiment: Block of forskolin-induced CREB phosphorylation; format: cell-based, rat; conditions: H89 2 µM; forskolin 25 µM
Method: (§2) Protocols followed are those described previously, using a well-characterized commercially available monoclonal antibody directed against the Ser133 phosphorylated version of CREB (see below), [66], [70]–[72]. Briefly, cultured striatal neurons (8–10 d.i.v.) were incubated in a Tyrode's solution containing TTX (1 µM) and AP-5 (25 µM) at room temperature for 1.5 hr. Unless noted otherwise, cell stimulations were performed as follows: vehicle (15 min); agonist stimulations were 15 min, antagonist exposure was 30 min prior to agonist stimulation, except PTX and CTX (18 hr pre-treatment), and concurrently with agonist stimulation. […] Data were quantified with Leica LAS AF (version 1.9.0; Leica).
(§3) The confocal excitation and detection settings for each experiment were determined using coverslips stimulated for 5 min with 60 mM potassium (60 K) to establish a “ceiling” for pCREB intensity. A baseline was determined via the vehicle (NS) group, so that each assay has an internal control. […] Neurons were readily discriminated from glia via size and morphology (see Figure 1 and Figure S1) and selected randomly using α-tubulin or MAP2 fluorescence, allowing the experimenter to remain blind to the CREB or pCREB signal. […] To analyze pCREB fluorescence intensity, the α-tubulin or MAP2 staining was used to draw a region of interested (ROI) of interest outlining the nucleus of each neuron. […]

[4] = test system: PKA; conditions: cited from earlier work
From the text: as §1

[5] = test system: ROCK-II; conditions: cited from earlier work
From the text: as §1

[6] = test system: MAPKAP; conditions: cited from earlier work
From the text: as §1

[7] = test system: PKB; conditions: cited from earlier work
From the text: as §1

[8] = test system: BDNF-induced NFAT activation; conditions: 100 nM; cited from earlier work
From the text: as §1

[9] = test system: Ras; conditions: cited from earlier work
From the text: as §1

[10] = test system: Rac1; set-up: dose or concentration left out as unconfirmed; conditions: cited from earlier work
From the text: as §1

[11] = test system: PI3K; conditions: cited from earlier work
From the text: as §1

[12] = test system: ISO-induced CREB phosphorylation in striatal neurons; experiment: Block of isoproterenol-induced CREB phosphorylation; format: cell-based, rat; conditions: gallein 75 µM; ISO 10 µM
Method: as §2, §3

O=C1Nc2ccc(I)cc2/C1=C/c1cc(Br)c(O)c(Br)c1 [GW5074]
effect on ISO-induced pCREB in striatal neurons [1]: c-Raf (1 mM blocks ISO-induced pCREB in striatal neurons)
effect on CRF-induced CREB phosphorylation ([2]; inhibitor 1 µM, data not shown): failed to affect CRF-induced CREB phosphorylation

O=S(=O)(NCCNC/C=C/c1ccc(Br)cc1)c1cccc2cnccc12 [H89]
effect on forskolin-induced CREB phosphorylation [3]: attenuated forskolin (FSK)-induced CREB phosphorylation
effect on CRF-induced CREB phosphorylation ([2]; inhibitor 2 µM): failed to block CRF-induced CREB phosphorylation
IC50 [4]: 135 nM
IC50 [5]: > 270 nM
IC50 [6]: > 270 nM

COC(=O)[C@@]1(O)C[C@H]2O[C@]1(C)n1c3ccccc3c3c4c(c5c6ccccc6n2c5c31)C(=O)NC4 [K252a]
effect on CRF-induced CREB phosphorylation ([2]; inhibitor 100 nM): failed to affect CRF-induced CREB phosphorylation
effect on BDNF-induced NFAT activation [8]: Tyrosine Kinase (100 nM prevents BDNF-induced NFAT activation)

Cc1cc(C(=O)N2CCN(c3cccc(Cl)c3)CC2)n(-c2ccccc2)n1 [XRP44X]
effect on CRF-induced CREB phosphorylation ([2]; inhibitor 2 µM): failed to affect CRF-induced CREB phosphorylation
IC50 [9]: 10 to 20 nM

O=C1OC2(c3ccccc31)c1ccc(O)c(O)c1Oc1c2ccc(O)c1O [gallein]
Rac1 activation inhibition [10]: inhibits PI3K and Rac1 activation
effect on CRF-induced CREB phosphorylation ([2]; inhibitor 75 µM): CRF failed to induce CREB phosphorylation in the presence of this drug; also recorded: eliminated CRF-induced CREB phosphorylation
PI3K inhibition [11]: inhibits PI3K
effect on ISO-induced CREB phosphorylation [12]: should not affect ISO-dependent CREB phosphorylation. Indeed, this was in fact the case; also recorded: had no effect on CREB phosphorylation

From publication PMC3063246, “Corticotropin Releasing Factor-Induced CREB Activation in Striatal Neurons Occurs via a Novel Gβγ Signaling Pathway” (PLoS ONE, 2011)
